pEC50: −log10 of the molar value.
Assays:
[1] = Agonist activity at human-mouse chimeric GPR119 expressed in tetracycline-induced Flp-In-T-Rex-HEK293 cells assessed as accumulation of cAMP after 50 mins by HTRF assay; format: cell-based; conditions: HEK293, 50 min
[2] = Half life in human liver microsomes at 50 uM preincubated for 5 mins followed by NADPH addition by LC/MS-MS analysis; format: ADME
[3] = test system: Mus musculus; experiment: Antidiabetic activity in C57BL/6J mouse assessed as reduction in plasma glucose level at 0.03 mg/kg, po administered for 60 mins followed by glucose challenge measured for 30 to 120 mins by OGTT relative to vehicle-treated control; format: functional; design: scale not given: the % may be the effect or the level left
[4] = test system: Mus musculus; experiment: Antidiabetic activity in C57BL/6J mouse assessed as reduction in plasma glucose level at 0.1 mg/kg, po administered for 60 mins followed by glucose challenge measured for 30 to 120 mins by OGTT relative to vehicle-treated control; format: functional; design: scale not given: the % may be the effect or the level left

Row | Compound | pEC50 [1] | half-life at 50 µM [2] [h] | Activity [3] [%] | Activity [4] [%]
1 | Cc1nc(-n2ccc(OC3CCN(c4ncc(Cl)cn4)CC3)cc2=O)ccc1N1CCC(O)C1=O (configuration not stated) | 8.00 | 1.68 | – | –
2 | Cc1nc(-n2cc(Cl)c(OC3CCN(c4ncc(Cl)cn4)CC3)cc2=O)ccc1N1CC[C@@H](O)C1=O | 8.52 | 1.62 | 39 | –
3 | Cc1nc(-n2cc(Cl)c(OC3CCN(c4ncc(Cl)cn4)CC3)cc2=O)ccc1N1CC[C@H](O)C1=O | 8.40 | 1.3 | 26 | –
4 | CCCc1cnc(N2CCC(Oc3ccn(-c4ccc(N5CCC(O)C5=O)c(C)n4)c(=O)c3)CC2)nc1 (configuration not stated) | 7.80 | 1.27 | – | 21
5 | CCCc1cnc(N2CCC(Oc3cc(=O)n(-c4ccc(N5CCC(O)C5=O)c(C)n4)cc3Cl)CC2)nc1 (configuration not stated) | 8.40 | 2 | 19 | –
6 | Cc1nc(-n2cc(Cl)c(OC3CCN(c4ncc(Cl)cn4)CC3)cc2=O)ccc1N1CCC(O)C1=O (configuration not stated) | 8.70 | 1.57 | 36 | –

From ChEMBL document CHEMBL3286211, “Pyrimidinylpiperdinyloxypyridone Analogues as GPR119 Modulators” (ACS Med Chem Lett, 2014)
